Values joined by “and” are separate entries in the source; they are usually repeats but may differ in a detail not shown here. Equal entries are not always repeated. Where two headings read alike, the source gives them in different places.
Legend:
murine lymphocytes = assay: In vitro functional assay based on viability of murine lymphocytes; assay type: cell-based
Protocol: FIG. 1C. The effect of 5FU or vehicle control in the functional assay presented as viable cells/ml. The incubation time with 5FU or vehicle control (72 hours) is indicated on the x-axis.

topoisomerase I = target: T1, topoisomerase I (Homo sapiens, UniProt P11387); settings: cited from earlier work
T1 sequence (P11387 1-765): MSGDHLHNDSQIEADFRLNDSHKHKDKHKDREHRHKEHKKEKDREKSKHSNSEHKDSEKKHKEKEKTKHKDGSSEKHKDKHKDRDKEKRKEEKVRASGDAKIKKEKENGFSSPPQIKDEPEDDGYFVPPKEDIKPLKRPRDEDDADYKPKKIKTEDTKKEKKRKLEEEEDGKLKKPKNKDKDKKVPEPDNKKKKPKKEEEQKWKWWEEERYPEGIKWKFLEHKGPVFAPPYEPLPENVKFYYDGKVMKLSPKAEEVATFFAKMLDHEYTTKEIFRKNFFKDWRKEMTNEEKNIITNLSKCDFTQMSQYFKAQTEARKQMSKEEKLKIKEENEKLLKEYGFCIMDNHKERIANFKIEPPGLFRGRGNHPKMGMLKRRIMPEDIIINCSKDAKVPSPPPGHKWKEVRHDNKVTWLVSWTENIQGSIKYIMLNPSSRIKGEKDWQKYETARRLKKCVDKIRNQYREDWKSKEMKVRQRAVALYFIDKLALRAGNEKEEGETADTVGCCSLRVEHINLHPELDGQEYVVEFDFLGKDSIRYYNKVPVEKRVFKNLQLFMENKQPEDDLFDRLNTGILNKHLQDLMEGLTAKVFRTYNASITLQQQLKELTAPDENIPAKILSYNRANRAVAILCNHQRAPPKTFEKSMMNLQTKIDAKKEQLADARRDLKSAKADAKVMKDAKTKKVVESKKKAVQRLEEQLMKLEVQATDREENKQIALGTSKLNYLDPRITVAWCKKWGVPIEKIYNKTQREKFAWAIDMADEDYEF

[1] = Phase I clinical trial of CT-011, pharmacokinetics; settings: Table 2 patients
[2] = system: advanced hematological malignancies
[3] = human, in vivo
[4] = murine lymphocytes, agent combined with hBAT-1
[5] = AML patient receiving CT-011 at 0.2 and 3 mg/kg
[6] = Pt. 003/016, AML, 0.2/3.0 mg/kg

O=c1[nH]cc(F)c(=O)[nH]1 [5FU, 5-fluorouracil]
effect of chemotherapeutic agent on the activity of hBAT-1 (murine lymphocytes; [4]): do not adversely affect the activity of hBAT-1 | cell survival with chemotherapeutic agent on its own (murine lymphocytes; without hBAT-1, FIG. 1C): did not enhance cell survival

CCc1c2c(nc3ccc(O)cc13)-c1cc3c(c(=O)n1C2)COC(=O)[C@]3(O)CC [SN-38, 7-ethyl-10-hydroxy-camptothecin]
potency relative to parent compound irinotecan (topoisomerase I): One thousand-fold more potent | cell survival when given in combination with hBAT-1 (murine lymphocytes): do not enhance cell survival

N.N.[Cl][Pt][Cl] [cisplatin, cis-diamminedichloridoplatinum II]
effect of chemotherapeutic agent on the activity of hBAT-1 (murine lymphocytes; [4]): do not adversely affect the activity of hBAT-1

O=P1(N(CCCl)CCCl)NCCCO1 (stereo not drawn) [cyclophosphamide]
cell survival when given in combination with hBAT-1 (murine lymphocytes; murine lymphocyte culture): do not enhance cell survival

Nc1ccn([C@@H]2O[C@H](CO)[C@@H](O)[C@@H]2O)c(=O)n1 [cytarabine]
effect of chemotherapeutic agent on the activity of hBAT-1 (murine lymphocytes; [4]): do not adversely affect the activity of hBAT-1

O=C1[O][Pt]2([NH][C@@H]3CCCC[C@H]3[NH]2)[O]C1=O [oxaliplatin]
effect of chemotherapeutic agent on the activity of hBAT-1 (murine lymphocytes): do not adversely affect the activity of hBAT-1

CC(=O)O[C@H]1C(=O)[C@@]2(C)[C@H]([C@H](OC(=O)c3ccccc3)[C@]3(O)C[C@H](OC(=O)[C@H](O)[C@@H](NC(=O)c4ccccc4)c4ccccc4)C(C)=C1C3(C)C)[C@]1(OC(C)=O)CO[C@@H]1C[C@@H]2O [paclitaxel]
effect of chemotherapeutic agent on the activity of hBAT-1 (murine lymphocytes; [4]): do not adversely affect the activity of hBAT-1

hBAT-1: humanized monoclonal antibody with CDRs of murine mBAT-1 and human framework regions
median t1/2 of the 6 patients with apparent clinical response versus the rest [1]: somewhat higher than that of the rest of the patients | patients reporting adverse events (AE) ([2]; 11 of 18): 61% | changes in disease parameters ([2]; 21 days, 2 CLL, 4 NHL and one Multiple Myeloma patient): no changes in disease parameters | clinical response [2, 5]: minimal response | time to progression after receiving CT-011 [2, 5]: 61 weeks | change in average percentage of blasts in the peripheral blood ([2]; AML patients, 21 days, excluding one patient): no change | duration of stable disease ([2]; CLL patient, 0.6 mg/kg): 36 weeks | duration of stable disease ([2]; CLL patient, 1.5 mg/kg): over 78 weeks | duration of stable disease ([2]; HD patient, 0.6 mg/kg): 35 weeks | duration of stable disease ([2]; MM patient, 6.0 mg/kg): over 60 weeks | Overall Survival (Weeks) [2, 6]: 61 Weeks | platelet transfusion-independent period [2, 6]: for 9 months | reduction in peripheral blasts ([2]; Pt. 003/016, AML, on first dose (0.2 mg/kg)): (50% to 5%) on first dose | Overall Survival (Weeks) ([2]; Pt. 005, CLL, 0.6 mg/kg): 36 Weeks | Overall Survival (Weeks) ([2]; Pt. 006, HD, 0.6 mg/kg): 35 Weeks | Overall Survival (Weeks) ([2]; Pt. 008, CLL, 1.5 mg/kg): >78 Weeks | duration stable ([2]; Pt. 008, CLL, 1.5 mg/kg): Stable for >17 months | Overall Survival (Weeks) ([2]; Pt. 015, NHL, 3.0 mg/kg): >68 Weeks | tumor masses by CT scan ([2]; Pt. 015, follicular lymphoma, 10 months post CT-011 treatment): complete elimination of tumor masses | Overall Survival (Weeks) ([2]; Pt. 017, MM, 6.0 mg/kg): >60 Weeks | duration stable ([2]; Pt. 017, MM, 6.0 mg/kg): Stable for >13 months | cumulative survival of all patients ([2]; at 21 days, n=18): 76% | most frequent AE ([2]; concluded not associated with CT-011 treatment): diarrhea | patients with apparent response to treatment ([2]; follow-up): 6 patients | mean survival time ([2]; follow-up beyond 21 days, all patients, listed as CT-011): 25±27 weeks and 25 weeks | difference in mean survival time across the dose groups ([2]; human, in vivo): No difference | serious adverse events ([2]; number, all resulted in death, in AML patients): Four | sustained remission ([2]; patient #015, following CT-011 treatment): 68 weeks | clinical response ([2]; patient #015, stage III follicular lymphoma, 3.0 mg/kg): complete remission | dose-limiting toxicity (DLT) ([2]; single dose 0.2 to 6 mg/kg): No DLT was reached | maximum tolerated dose (MTD) ([2]; single dose 0.2 to 6 mg/kg): No single dose MTD was found | safety and tolerability ([2]; single dose 0.2 to 6 mg/kg): safe and well tolerated with no treatment-related toxicities | highest half life [3]: 17.1 days
